# Values joined by “and” are separate entries in the source; they are usually repeats but may differ in a detail not shown here. Equal entries are not always repeated.
# Tests used:
# plasma glucose [1] = test: Plasma glucose levels in non-fasted rats; format: in vivo, rats (Sprague Dawley); conditions: 750 mg/Kg, 1 hour after administration
# Description: (§1) This hypoglycemic effect may contribute to the anti-ischemic properties of the molecule. Ribose is known to lower blood glucose in several animal species, including man, in relatively high doses (on the order of about 1000 mg/kg) by an unknown mechanism, possibly by inhibition of phosphoglucomutase. Accordingly, in theory, AICA riboside could cause hypoglycemia at extremely high doses ([…]) due to its ability to deliver ribose phosphate to cells. Other means of increasing intracellular ribose such as treatment with ribose itself or other nucleosides and prodrugs and analogs of them which can be metabolized to yield ribose-1-phosphate (which is converted ribose-5-phosphate) or ribose-5-phosphate may also lower blood sugar. […] At higher doses of AICA riboside, hypoglycemic seizures and death were induced in rabbits and mice. We have found rats to also be sensitive to the hypoglycemic effects of AICA riboside. Initial studies were performed using non-fasted rats (Sprague Dawley) and mice (Swiss-Webster). […] In non-fasted mice the decrease of glucose levels at this dose was greater, On the order of 30-50%. In both cases the hypoglycemia was statistically significant at the p <.01 level. […] In fasted mice, AICA riboside is potent in lowering blood glucose. (See e.g., Figure 6). In fasted mice AICA riboside may cause seizures at doses of 500 mg/Kg and above. […]
# Blood Glucose = test: Effect on blood glucose in rabbits (hexokinase procedure); format: in vivo, Rabbits (New Zealand White); conditions: for Blood Glucose Change(+/-): 2H post-dose vs pre-dose; for Blood Glucose Change(+/-) / Blood Glucose 2H Post-Dose: individual rabbits
# Description: Rabbits (New Zealand White) were given IV doses of AICA riboside, either 2 ml/kg (100 mg/kg) or 4 ml/kg (200 mg/kg). Blood was obtained by venipuncture before AICA riboside administration and two hours post-administration. Blood glucose concentrations before administration and two hours post-administration were measured by the hexokinase procedure (see Example K). The percent change (+/-) from pre-dose values are reported. Both dosage levels decreased blood glucose levels as compared with pre-AICA riboside administration levels.
# (§2) AICA riboside (100, 250 or 500 mg/kg) or saline (as a control) was administered intraperitoneally to rats. Sixty minutes after AICA riboside administration, the rats were sacrificed by cervical dislocation. Blood glucose was determined spectrophotometrically measuring O.D. at 340 nm by the hexokinase method using the glucose SR Reagent (Medical Analysis Systems, Inc.) Blood lactate and pyruvate were determined spectrophotometrically measuring O.D. at 340 nm using lactate dehydrogenase in the presence of excess NAD or NADH, respectively.
# insulin = test: Plasma insulin levels in humans; format: in vivo; conditions: human subjects; precedes the drop in blood glucose
# Description: Human (male) volunteers were given a 15-minute intravenous infusion of 50 mg/kg AICA riboside. Plasma concentrations of immunoreactive insulin was determined by RIA during and following the administration for about 4 hours. (RIA kit, Amersham Clinical).
# plasma glucose [2] = test: Plasma glucose in streptozocin-hyperglycemic rats; format: in vivo; conditions: rats made hyperglycemic with 50 mg/Kg streptozocin I.V.; doses as low as 100 mg/Kg I.P.
# Description: as §1
# plasma glucose [3] = test: Plasma glucose levels in non-fasted and fasted mice; format: in vivo, mice (Swiss-Webster); conditions: for reduced glucose levels: fasted mice (16 hours)
# Description: Ribose is known to lower blood glucose in several animal species, including man, in relatively high doses (on the order of about 1000 mg/kg) by an unknown mechanism, possibly by inhibition of phosphoglucomutase. […] Initial studies were performed using non-fasted rats (Sprague Dawley) and mice (Swiss-Webster).
# Male mice (Swiss-Webster) were injected IP with the indicated treatment. […] Ribose and AICA riboside were formulated in saline. Glucose levels were measured on plasma (heparinized blood centrifuged at 10,000 X g for ten minutes). Glucose levels were measured one hour after AICA riboside administration.
# lactate and pyruvate = test: Blood lactate and pyruvate in rats; format: in vivo
# Description: as §2
# [4] = 2ml (100 mg/kg) IV, rabbit 10 not included
smiles,measurement,setting,value
"NC(=O)c1ncn([C@@H]2O[C@H](CO)[C@@H](O)[C@H]2O)c1N [AICA riboside, 1-β-D-ribofuranosyl-5-aminoimidazole-4-carboxamide]",Decreases in plasma glucose levels,plasma glucose [1],30-40%
same,Blood Glucose Change(+/-),Blood Glucose; 2ml (100 mg/kg) IV,-25 mg% and +102* mg% and -24 mg% (2×) and -28 mg% and +10 mg% and -22 mg% and -23 mg% and -11 mg% and -53 mg%
same,Blood Glucose 2H Post-Dose,Blood Glucose; 2ml (100 mg/kg) IV,93 mg% and 215* mg% and 87 mg% and 89 mg% (2×) and 122 mg% and 96 mg% and 98 mg% and 106 mg% and 99 mg%
same,"Blood Glucose 2H Post-Dose, Mean",Blood Glucose; [4],98 mg%
same,"Blood Glucose Change(+/-), Mean",Blood Glucose; [4],-22 mg%
same,Blood Glucose Change(+/-),Blood Glucose; 4ml (200mg)/kg IV,-14 mg% and -76 mg% and -42 mg% and -69 mg% and -59 mg%
same,Blood Glucose 2H Post-Dose,Blood Glucose; 4ml (200mg)/kg IV,100 mg% and 32** mg% and 79 mg% and 56 mg% and 62 mg%
same,"Blood Glucose 2H Post-Dose, Mean",Blood Glucose; 4ml (200mg)/kg IV,66 mg%
same,"Blood Glucose Change(+/-), Mean",Blood Glucose; 4ml (200mg)/kg IV,-52 mg%
same,serum insulin levels,insulin,significant elevations of serum insulin levels
same,effect on plasma glucose,plasma glucose [2],marked decreases in plasma glucose that approached euglycemic levels
same,doses that may cause seizures,plasma glucose [3]; fasted mice,≥ 500 mg/kg
same,duration of reduced plasma glucose levels,"plasma glucose [3]; fasted mice (2 hours), 500 mg/Kg",2 to 3 h
same,reduced glucose levels,plasma glucose [3]; 250 mg/Kg,50%
same,reduced glucose levels,plasma glucose [3]; 500 and 750 mg/Kg,60%
same,decrease of glucose levels,"plasma glucose [3]; non-fasted mice, 750 mg/Kg",30-50%
same,lactate to pyruvate ratio,lactate and pyruvate,not changed
same,"liver glycogen, serum lactate and pyruvate",lactate and pyruvate,elevation of liver glycogen and of serum lactate and pyruvate

# From patent EP0427799B1, “METHOD AND COMPOUNDS FOR AICA RIBOSIDE DELIVERY AND FOR LOWERING BLOOD GLUCOSE” (GENSIA, INC., priority 1989, dated 1990)
